According to PMC4102924 (Science translational medicine, 2013):

Target: PDK2 (pyruvate dehydrogenase kinase 2) (Homo sapiens, UniProt Q15119)
Test: radiometric kinase assay with recombinant PDK2
Type: biochemical

With O=C(O)CCCc1ccccc1 [phenylbutyrate] the Ki was 330 ± 80 µM.
